Measurements: PMC4838890, “Dynamic and flexible H3K9me3 bridging via HP1β dimerization establishes a plastic state of condensed chromatin” (Nature Communications, 2016)
Entries after “also recorded” stand apart in the source; their conditions may differ.

Legend:
H3K9me0 oligonucleosomes = test: Fluorescence correlation spectroscopy (FCS), H3K9me0 oligonucleosomes; type: biochemical, Xenopus laevis; conditions: 150 mM NaCl
Method: All fluorescence measurements were performed with a pulsed custom-built mode-locked Ti:Sa-Laser and a confocal two-photon fluorescence microscope setup. Detailed description of the experimental setup and the measurement procedure are available on request. In all cases 10 nM of the acceptor labelled species, ATTO 610-labelled nucleosomal array, was incubated with 20–200 μM of recombinant hHP1β in 10 μl of 10 mM triethanolamine HCl (pH 7.5), 0.1 mM EDTA, 150 mM NaCl at 4°C. For each sample the fluorescence correlation curve, fluorescence intensity and anisotropy values were determined at 22°C. Every data point was averaged over a minimum of 15 single measurements of 10 s each. […]
The fluorescence data were analysed using the correlation function [drawing 1] , and the equation for free diffusion of particles [drawing 2] , where I(t) is the fluorescence intensity measured at time t, N the particle number, τD the diffusion time, and r0=0.25 the axis ratio of the focal region, considering the dimensions of a Gaussian beam waist. […]
(b) Results of stepwise precipitation and resolubilization after clustering H3K9me3-oligonucleosomes by hHP1β at different concentrations. DNA remaining in the supernatant after centrifugation was incubated with EtBr and measured by fluorescence reading. […]
(c) Instrumental setup used for two -photon fluorescence correlation spectroscopy (FCS). […]

[1] = Multimerization beyond dimer; type: physicochemical; conditions: dynamic light scattering, SAXS, protein cross-linking, nuclear magnetic resonance
[2] = system: H3K9me3 oligonucleosomal templates containing tailless H2A, H2B or H4; test: Chromatin sedimentation (clustering), H3K9me3 oligonucleosomes with tailless histones; type: biochemical, Xenopus laevis; conditions: 150 mM NaCl, n=3
Method: Figure 3 hHP1β clusters oligonuclesomal arrays in dependence of H3K9me3. (a) Oligonucleosomes (2.5 nM) were incubated with increasing concentrations of hHP1β WT or I161A at 150 mM NaCl. DNA remaining in the supernatant after centrifugation was incubated with EtBr and measured by fluorescence reading. Data were normalized to amounts in absence of added protein. Averages of three independent experiments are plotted; error bars represent s.d.; n=3. (b) Analysis of the hydrodynamic radius of oligonucleosomes (10 nM; DNA labelled with ATTO 610) in the presence of increasing concentrations of hHP1β WT or I161A by FCS at 150 mM NaCl. For details on experimental setup see Supplementary Fig. 3. Error bars represent s.d.; n=3. (c) Oligonucleosomes were reconstituted after mixing H3K9me0 and H3K9me3 octamers at different ratio. […] (d) Precipitation behaviour of oligonucleosomes (2.5 nM) was analysed at different concentrations of NaCl with hHP1β WT at saturating concentration. […] Precipitated material was analysed by western blotting. […] Complexes were fixed with 0.05% (v/v) glutaraldehyde, spotted on mica surfaces and analysed by scanning force microscopy. […] (h) Quantification of results representatively shown in g according to the classification on the top: A, extended; B, partially condensed; C, fully condensed; D; aggregates; n>50 for each condition. […]

## hHP1β WT: recombinant human heterochromatin protein 1β (GenBank NM_001127228), 185 aa
H3K9me0 oligonucleosomes
  assemblies with H3K9me0 oligonucleosomes (FCS): larger assemblies only appeared at high hHP1β WT concentrations
[1]
  multimerization beyond CSD-mediated dimerization: failed to detect any multimerization of hHP1β beyond CSD-mediated dimerization
[2]
  clustering of oligonucleosomes with tailless histones: clustered H3K9me3 oligonucleosomes containing tailless H2A or H2B as efficiently as H3K9me3-oligonucleosomes containing WT core histones; also recorded: the effect on H3K9me3 oligonucleosomes containing tailless H4 was impaired
